Like-named read-outs stand apart in the source and are kept apart here.
Test system: H460 cells
Test: Proliferation assay in H460 cells (2 hr exposure, AlamarBlue)
Type: cell-based, human
Settings: wash, 70 hrs growth, read-out: IC 50 in proliferation assay in H460 cells
Protocol: In vitro proliferation data on the H460 […] human tumor cell line is reported above in the compound table.
Specifically, exponentially growing cells were seeded at a density of 4×10^3 cells per well in a 96 well plate and incubated at 37° C. in 5% CO2, 95% air and 100% relative humidity for 24 hours prior to addition of test compounds. Compounds were solubilized in 100% DMSO at 200 times the desired final test concentration. At the time of drug addition, compounds were further diluted to 4 times the desired final concentration with complete medium. Aliquots of 50 μl of compound at specified concentrations were added to microtiter wells already containing 150 μl of medium, resulting in the final drug concentration reported. After drug addition, the plates were incubated for an additional 2 hours at 37° C., 5% CO2, 95% air, and 100% relative humidity, then the drug was washed off and fresh medium was added and the plates were incubated for addition 70 hrs at 37° C., 5% CO2, 95% air and 100% relative humidity. At the end of this incubation, the viable cells were quantified using the AlamarBlue assay. The drug concentration resulting in growth inhibition of 50% (IC50) was calculated using Prism software (Irvine, Calif.), and the results were listed in the table.

[1] = Homo sapiens, NCI-H460, 2 hrs exposure

Structure (SMILES)	IC50 [1]	IC50 (2 hrs exposure)
CC(OP(=O)(N1CC1)N1CC1)c1cc(Oc2ccccc2)c([N+](=O)[O-])cc1F (stereo not shown) [Compound 2846]	60 nM	
CCOC(=O)c1ccc(Oc2cc(C(C)OP(=O)(N3CC3)N3CC3)ccc2[N+](=O)[O-])cc1 (stereo not shown) [Compound 2853]	< 5 nM	
CCOC(=O)c1cccc(Oc2cc(C(C)OP(=O)(N3CC3)N3CC3)ccc2[N+](=O)[O-])c1 (stereo not shown) [Compound 2854]	< 5 nM	
CC(OP(=O)(N1CC1)N1CC1)c1ccc([N+](=O)[O-])c(Oc2cccc(N(C)C)c2)c1 (stereo not shown) [Compound 2855]	30 nM	
CC(OP(=O)(N1CC1)N1CC1)c1ccc([N+](=O)[O-])c(Oc2ccc(Cl)cc2)c1 (stereo not shown) [Compound 2860]	10 nM	
CC(OP(=O)(N1CC1)N1CC1)c1ccc([N+](=O)[O-])c(Oc2ccc(F)cc2)c1 (stereo not shown) [Compound 2861]	20 nM	
CC(OP(=O)(N1CC1)N1CC1)c1ccc([N+](=O)[O-])c(Oc2ccccc2Cl)c1 (stereo not shown) [Compound 2862]	40 nM	
CC(OP(=O)(N1CC1)N1CC1)c1ccc([N+](=O)[O-])c(Oc2ccc(F)cc2F)c1 (stereo not shown) [Compound 2863]	20 nM	
CC(OP(=O)(N1CC1)N1CC1)c1ccc([N+](=O)[O-])c(Oc2ccc(Cl)cc2Cl)c1 (stereo not shown) [Compound 2864]	20 nM	
CC(OP(=O)(N1CC1)N1CC1)c1ccc([N+](=O)[O-])c(Oc2ccccc2F)c1 (stereo not shown) [Compound 2865]	30 nM	
CC(OP(=O)(N1CC1)N1CC1)c1ccc([N+](=O)[O-])c(Oc2ccc3c(c2)OCO3)c1 (stereo not shown) [Compound 2866]	20 nM	
CC(OP(=O)(N1CC1)N1CC1)c1ccc([N+](=O)[O-])c(Oc2cccc(C(F)(F)F)c2)c1 (stereo not shown) [Compound 2871]	30 nM	
CC(OP(=O)(N1CC1)N1CC1)c1ccc([N+](=O)[O-])c(Oc2ccc(C#N)cc2)c1 (stereo not shown) [Compound 2872]	30 nM	
CC(OP(=O)(N1CC1)N1CC1)c1ccc([N+](=O)[O-])c(Oc2ccccn2)c1 (stereo not shown) [Compound 2874]	500 nM	
O=[N+]([O-])c1ccc(COP(=O)(N2CC2)N2CC2)cc1Oc1ccccn1 [Compound 2875]	3200 nM	
CCOC(=O)c1ccc(Oc2cc(COP(=O)(N3CC3)N3CC3)ccc2[N+](=O)[O-])cc1 [Compound 2876]	3 nM	
O=[N+]([O-])c1ccc(COP(=O)(N2CC2)N2CC2)cc1Oc1cccnc1 [Compound 2877]	20 nM	
CC(OP(=O)(N1CC1)N1CC1)c1ccc([N+](=O)[O-])c(Oc2nc3ccccc3s2)c1 (stereo not shown) [Compound 2878]	4400 nM	
CC(OP(=O)(N1CC1)N1CC1)c1ccc([N+](=O)[O-])c(Oc2ccc(S(N)(=O)=O)cc2)c1 (stereo not shown) [Compound 2880]	100 nM	
CC(OP(=O)(N1CC1)N1CC1)c1ccc([N+](=O)[O-])c(Oc2ccc(S(=O)(=O)N(C)C)cc2)c1 (stereo not shown) [Compound 2881]	30 nM	
CNC(=O)c1cccc(Oc2cc(C(C)OP(=O)(N3CC3)N3CC3)ccc2[N+](=O)[O-])c1 (stereo not shown) [Compound 2884]	10 nM	
CC(OP(=O)(N1CC1)N1CC1)c1ccc([N+](=O)[O-])c(Oc2ccccc2C(=O)N(C)C)c1 (stereo not shown) [Compound 2885]	3700 nM	
NS(=O)(=O)c1ccc(Oc2cc(COP(=O)(N3CC3)N3CC3)ccc2[N+](=O)[O-])cc1 [Compound 2887]	200 nM	
Cc1ccc(Oc2cc(C(C)OP(=O)(N3CC3)N3CC3)ccc2[N+](=O)[O-])cn1 (stereo not shown) [Compound 2891]	30 nM	
O=[N+]([O-])c1ccc(COP(=O)(N2CC2)N2CC2)cc1Oc1ccc(F)nc1 [Compound 2892]	2 nM	
CC(OP(=O)(N1CC1)N1CC1)c1ccc([N+](=O)[O-])c(Oc2ccc(F)nc2)c1 (stereo not shown) [Compound 2893]	20 nM	

Structure (SMILES)	IC50 [1]	IC50 (2 hrs exposure)
COc1ccc(Oc2cc(COP(=O)(N3CC3)N3CC3)ccc2[N+](=O)[O-])cc1 [Compound 2895]	4 nM	
Nc1ccc(Oc2cc(COP(=O)(N3CC3)N3CC3)ccc2[N+](=O)[O-])cc1 [Compound 2896]	100 nM	
CC(OP(=O)(N1CC1)N1CC1)c1ccc([N+](=O)[O-])c(Oc2ccc(-c3nccs3)cc2)c1 (stereo not shown) [Compound 2898]	10 nM	
O=[N+]([O-])c1ccc(COP(=O)(N2CC2)N2CC2)cc1Oc1ccc(-c2nccs2)cc1 [Compound 2899]	4 nM	
CC(OP(=O)(N1CC1)N1CC1)c1ccc([N+](=O)[O-])c(Oc2ccc3ncsc3c2)c1 (stereo not shown) [Compound 2900]	40 nM	
CNS(=O)(=O)c1ccc(Oc2cc(C(C)OP(=O)(N3CC3)N3CC3)ccc2[N+](=O)[O-])cc1 (stereo not shown) [Compound 2902]	90 nM	
CNS(=O)(=O)c1ccc(Oc2cc(COP(=O)(N3CC3)N3CC3)ccc2[N+](=O)[O-])cc1 [Compound 2903]	30 nM	
CC(OP(=O)(N1CC1)N1CC1)c1ccc([N+](=O)[O-])c(Oc2ccc(-c3ncco3)cc2)c1 (stereo not shown) [Compound 2904]	10 nM	
CC(OP(=O)(N1CC1)N1CC1)c1ccc(Oc2ccccc2)c([N+](=O)[O-])c1 (stereo not shown) [Compound 2906, reference compound]	4000 nM	
CC(OP(=O)(N1CC1)N1CC1)c1ccc([N+](=O)[O-])c(Oc2ccc(C(=O)N(C)C)cc2)c1 (stereo not shown) [Compound 2908]	7 nM	
CNC(=O)c1ccc(Oc2cc(C(C)OP(=O)(N3CC3)N3CC3)ccc2[N+](=O)[O-])cc1 (stereo not shown) [Compound 2909]	10 nM	
CNC(=O)c1ccccc1Oc1cc(C(C)OP(=O)(N2CC2)N2CC2)ccc1[N+](=O)[O-] (stereo not shown) [Compound 2910]	3500 nM	
CC(OP(=O)(N1CC1)N1CC1)c1ccc([N+](=O)[O-])c(Oc2ccc(NS(C)(=O)=O)cc2)c1 (stereo not shown) [Compound 2912]	40 nM	
CC(OP(=O)(N1CC1)N1CC1)c1ccc([N+](=O)[O-])c(Oc2ccc(NS(=O)(=O)C(F)(F)F)cc2)c1 (stereo not shown) [Compound 2913]	70 nM	
CC(OP(=O)(N1CC1)N1CC1)c1ccc([N+](=O)[O-])c(Oc2ccc3ocnc3c2)c1 (stereo not shown) [Compound 2914]	30 nM	
O=[N+]([O-])c1ccc(COP(=O)(N2CC2)N2CC2)cc1Oc1ccc2ocnc2c1 [Compound 2915]	90 nM	
CC(OP(=O)(N1CC1)N1CC1)c1ccc([N+](=O)[O-])c(Oc2ccc(S(=O)(=O)Nc3ccc(F)cc3)cc2)c1 (stereo not shown) [Compound 2916]	120 nM	
CC(OP(=O)(N1CC1)N1CC1)c1ccc([N+](=O)[O-])c(Oc2ccc3cnn(C)c3c2)c1 (stereo not shown) [Compound 2917]	20 nM	
Cn1ncc2ccc(Oc3cc(COP(=O)(N4CC4)N4CC4)ccc3[N+](=O)[O-])cc21 [Compound 2918]	3 nM	
CC(OP(=O)(N1CC1)N1CC1)c1ccc([N+](=O)[O-])c(Oc2ccc3c(cnn3C)c2)c1 (stereo not shown) [Compound 2919]	4 nM	
CC(OP(=O)(N1CC1)N1CC1)c1ccc([N+](=O)[O-])c(Oc2ccc3c(c2)ncn3C)c1 (stereo not shown) [Compound 2920]	20 nM	
Cn1cnc2cc(Oc3cc(COP(=O)(N4CC4)N4CC4)ccc3[N+](=O)[O-])ccc21 [Compound 2921]	7 nM	
CC(OP(=O)(N1CC1)N1CC1)c1ccc([N+](=O)[O-])c(Oc2cccc([N+](=O)[O-])c2)c1 (stereo not shown) [Compound 2922]		3 nM
CC(OP(=O)(N1CC1)N1CC1)c1ccc([N+](=O)[O-])c(Oc2ccc(C(N)=O)cc2)c1 (stereo not shown) [Compound 2923]	20 nM	
CC(OP(=O)(N1CC1)N1CC1)c1ccc([N+](=O)[O-])c(Oc2cccc(C(N)=O)c2)c1 (stereo not shown) [Compound 2924]	100 nM	
CC(OP(=O)(N1CC1)N1CC1)c1ccc([N+](=O)[O-])c(Oc2cncnc2)c1 (stereo not shown) [Compound 2925]	40 nM	

From patent US10766914B2, “DNA alkylating agents” (OBI PHARMA, INC., priority 2015, dated 2020)
